{
  "source": "patent US20070197470A1",
  "about": "“Use of n-acetyl-d-aminogylcosamine in preparation of drugs for modulating microorganisms on mucous membrane” (priority 2003, published 2007)",
  "key": {"[1]": {"test_system": "patients with symptoms of microecological imbalance", "assay": "Clinical trial, effects for regulating mucocutaneous microecology", "type": "in vivo, human", "from_the_text": "(§1) 56 patients with symptoms of microecological imbalance, including 20 patients with oral complaints, such as halitosis, oral infections caused by clinically unknown pathogenic bacteria, 20 patients with subaxilary complaints, such as slimy sensation or bromidrosis, and 16 patients with low […] of gynecological genitourinary tract caused by unknown source of infectious pathogen, were separately treated by mouthwash or topical sprinkle of 1% N-acetyl-D-glucosamine aqueous solution twice daily for 7 days. […] Observation of effects of N-acetyl-D-glucosamine for regulating mucocutaneous microecology"}, "[2]": {"test_system": "flora of mucocutaneous microecology", "assay": "Clinical trial, detection of flora of mucocutaneous microecology (detection rates of various bacteria)", "type": "in vivo, human", "from_the_text": "as §1, with “Detection results” for “Observation”, “flora” for “effects”, “of” for “of N-acetyl-D-glucosamine for regulating”, “microecology regulated by N-acetyl-D-glucosamine (detection rates of various bacteria)” for “microecology”"}, "[3]": {"test_system": "Pseudomonas aeruginosa", "assay": "Tests of bacterial colonization resistance", "type": "in vivo", "conditions": "intestinal mucosa of test animals, different concentrations", "method": "Pseudomonas aeruginosa is used in the tests of bacterial colonization resistance of the compound of formula (I). The intestinal mucosa of test animals that were pre-administrated with Pseudomonas aeruginosus and were treated by the compound of formula (I) with different concentrations was detected by in situ colonization, qualitative and quantitative methods."}, "[4]": {"conditions": "in vivo", "from_the_text": "• 1. Acute toxicity test: including tests of administrating medicine orally, intravenous injection and maximum limit amount for administration; • 2. Ames test; • 3. Micronucleus test of bone marrow cell of small mouse; • 4. Abnormal sexual test for the sperm of mouse; • 5. Abnormal aberrance test for the chromosin of mouse's testis; • 6. Chronic lethal test; • 7. Subchronic toxicity (feed for 90 days) test; • 8. Traditional deformity-inducing test;"}, "[5]": {"test_system": "Proteus Mirabilis", "assay": "Promoting wave test (bio-wave model)", "type": "cell-based", "from_the_text": "1.1 Samples: Pure Compound of Formula (I)\n• Strain: Proteus Mirabilis (which should comply with the following biological reaction characteristics: dynamics (+), urease (+), lactose (−), glucose (+), H2S (−), phenylalanine deaminase (+). • Culture medium: modified LB culture medium (the component of the composition are: 1% trytones, 0.5% yeast extract, 1% sodium chloride, 0.1% glucose, 0.002% TTC, and pH=7.2˜7.4). 1.3 Experimental Method:\nThe experiment adopted a bio-wave model for studying the promoting wave function of the compound of formula (I)."}, "[6]": {"conditions": "Microecological imbalance of gynecological genitourinary tract, 16 cases"}, "[7]": {"conditions": "Subaxillary slimy sensation, 10 cases"}},
  "note": "Entries after “also recorded” stand apart in the source; their conditions may differ.",
  "data": [
    {"compound": "CC(=O)N[C@@H]1[C@@H](O)[C@H](O)[C@@H](CO)O[C@H]1O", "note": "[N-acetyl-D-glucosamine]", "values": [
      {"measurement": "total effective rate", "setting": "[1]; 56 patients, 1% aqueous solution mouthwash or topical sprinkle twice daily for 7 days", "result": 87.8, "unit": "%"},
      {"measurement": "Cured", "setting": "[1]; Bromidrosis, 10 cases", "result": 5},
      {"measurement": "Effective", "setting": "[1]; Bromidrosis, 10 cases", "result": 3},
      {"measurement": "Effective rate (%)", "setting": "[1]; Bromidrosis, 10 cases", "result": 80, "unit": "%"},
      {"measurement": "Ineffective", "setting": "[1]; Bromidrosis, 10 cases", "result": 2},
      {"measurement": "Cured", "setting": "[1]; [6]", "result": 7},
      {"measurement": "Effective", "setting": "[1]; [6]", "result": 6},
      {"measurement": "Effective rate (%)", "setting": "[1]; [6]", "result": 81.3, "unit": "%"},
      {"measurement": "Ineffective", "setting": "[1]; [6]", "result": 3},
      {"measurement": "Cured", "setting": "[1]; Oral compliant, 20 cases", "result": 8},
      {"measurement": "Effective", "setting": "[1]; Oral compliant, 20 cases", "result": 10},
      {"measurement": "Effective rate (%)", "setting": "[1]; Oral compliant, 20 cases", "result": 90, "unit": "%"},
      {"measurement": "Ineffective", "setting": "[1]; Oral compliant, 20 cases", "result": 2},
      {"measurement": "Cured", "setting": "[1]; [7]", "result": 7},
      {"measurement": "Effective", "setting": "[1]; [7]", "result": 3},
      {"measurement": "Effective rate (%)", "setting": "[1]; [7]", "result": 100, "unit": "%"},
      {"measurement": "Ineffective", "setting": "[1]; [7]", "result": 0},
      {"measurement": "detection rate of helicoids", "setting": "[2]; Buccal cavity (salivary bacteria), after regulation, before regulation 12", "result": "helicoids (0)"},
      {"measurement": "detection rate of corynebacterium diphtheroides", "setting": "[2]; Buccal cavity (salivary bacteria), after regulation, before regulation 18", "result": "diphtheroides (8),"},
      {"measurement": "detection rate of Streptococcus mutans", "setting": "[2]; Buccal cavity (salivary bacteria), after regulation, before regulation 23", "result": "(7), streptococcus"},
      {"measurement": "detection rate of streptococcus salivarius", "setting": "[2]; Buccal cavity (salivary bacteria), after regulation, before regulation 40", "result": "salivarius (90),"},
      {"measurement": "detection rate of Neisser's coccus", "setting": "[2]; Buccal cavity (salivary bacteria), after regulation, before regulation 50", "result": "(95), corynebacterium"},
      {"measurement": "detection rate of bacteroides", "setting": "[2]; Buccal cavity (salivary bacteria), after regulation, before regulation 60", "result": "bacteroides (30),"},
      {"measurement": "detection rate of aerobic coryneform bacteria", "setting": "[2]; Skin of axillary fossa, after regulation, before regulation 18", "result": "bacteria (12), pityro-"},
      {"measurement": "detection rate of Staphylococci", "setting": "[2]; Skin of axillary fossa, after regulation, before regulation 20", "result": "Staphylococci (36),"},
      {"measurement": "detection rate of pityrosporum furfur", "setting": "[2]; Skin of axillary fossa, after regulation, before regulation 24", "result": "sporum furfur (15),"},
      {"measurement": "detection rate of bacillus polymyxa odour", "setting": "[2]; Skin of axillary fossa, after regulation, before regulation 40", "result": "odour (9)"},
      {"measurement": "detection rate of bacillus acidi lactici", "setting": "[2]; Woman's genitourinary tract, after regulation, before regulation 18", "result": "acidi lactici (60),"},
      {"measurement": "detection rate of bacillus coli", "setting": "[2]; Woman's genitourinary tract, after regulation, before regulation 29", "result": "bacillus coli (10)"},
      {"measurement": "detection rate of Staphylococcus epidermidis", "setting": "[2]; Woman's genitourinary tract, after regulation, before regulation 38", "result": "midis (35), bacillus"},
      {"measurement": "change of flora after use", "setting": "[2]; buccal cavity, skin of axillary fossa and woman's genitourinary tract", "result": "autochthonous flora increased and allochthonous flora decreased"},
      {"measurement": "colonization resistance against Pseudomonas aeruginosa", "setting": "[3]", "result": "increased with the increase of its concentration"},
      {"measurement": "acute test dosage relative to the injection dosage for human being", "setting": "[4]", "result": 300, "unit": "times"},
      {"measurement": "dosage at which the acute toxicosis reaction had not appeared", "setting": "[4]", "result": "more than 2 g/kg"},
      {"measurement": "maximum dosage with no intoxication reaction", "setting": "[4]; 4 weeks", "result": 1, "unit": "g/kg"},
      {"measurement": "promoting wave function", "setting": "[5]", "result": "many fine waves on each ring emerged; also recorded: has promoting function to bio-waves"}
    ]}
  ]
}
